Test results: patent US20030073850A1, “4-Imidazole derivatives of benzyl and restricted benzyl sulfonamides, sulfamides, ureas, carbamates, and amides and their use” (priority 1998, published 2003)
pKi: −log10 of the molar value.

Tests used:
[1] = target: T1, α1b (hamster receptor expressed in mouse fibroblasts) (Mesocricetus auratus, UniProt P18841); experiment: Radioligand binding, [3H]-prazosin, α1b; settings: hamster receptor expressed in mouse fibroblasts, [3H]-prazosin; read-out: Radioligand Binding Ki α1b (Hamster)
T1 construct: expressed in transfected cells; host or cells: mouse fibroblasts
T1 sequence (P18841 1-515): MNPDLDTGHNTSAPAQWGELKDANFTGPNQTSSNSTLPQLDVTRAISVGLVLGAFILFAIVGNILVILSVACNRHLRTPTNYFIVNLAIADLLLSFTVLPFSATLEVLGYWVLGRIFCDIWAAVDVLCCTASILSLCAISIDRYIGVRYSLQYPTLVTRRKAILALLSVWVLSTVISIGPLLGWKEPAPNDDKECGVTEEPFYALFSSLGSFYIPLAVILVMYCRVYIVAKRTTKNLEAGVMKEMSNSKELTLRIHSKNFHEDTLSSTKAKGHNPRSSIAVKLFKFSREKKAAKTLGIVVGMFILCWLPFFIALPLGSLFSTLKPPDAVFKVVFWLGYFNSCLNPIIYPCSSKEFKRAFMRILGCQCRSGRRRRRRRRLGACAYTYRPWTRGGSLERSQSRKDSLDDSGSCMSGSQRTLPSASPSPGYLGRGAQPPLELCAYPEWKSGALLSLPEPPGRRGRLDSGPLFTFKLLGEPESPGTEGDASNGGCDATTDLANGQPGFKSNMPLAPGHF
Summary of the method: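 [3H]-prazosin radioligand displacement; α1A from rat submaxillary gland tissue, α1b hamster and α1d rat receptors each expressed in mouse fibroblasts.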

[2] = target: T2, α1A (rabbit urethra) (Oryctolagus cuniculus, UniProt O02824); experiment: Agonist tissue response, contraction of rabbit urethra; type: biochemical; settings: values without asterisk, read-out: Agonist Tissue Response (pD2) α1A (rab ureth) (converted)
T2 construct: tested for α1A functional activity using rabbit urethra; from tissue; host or cells: rabbit urethra (female New Zealand white rabbits)
T2 sequence (O02824 1-466): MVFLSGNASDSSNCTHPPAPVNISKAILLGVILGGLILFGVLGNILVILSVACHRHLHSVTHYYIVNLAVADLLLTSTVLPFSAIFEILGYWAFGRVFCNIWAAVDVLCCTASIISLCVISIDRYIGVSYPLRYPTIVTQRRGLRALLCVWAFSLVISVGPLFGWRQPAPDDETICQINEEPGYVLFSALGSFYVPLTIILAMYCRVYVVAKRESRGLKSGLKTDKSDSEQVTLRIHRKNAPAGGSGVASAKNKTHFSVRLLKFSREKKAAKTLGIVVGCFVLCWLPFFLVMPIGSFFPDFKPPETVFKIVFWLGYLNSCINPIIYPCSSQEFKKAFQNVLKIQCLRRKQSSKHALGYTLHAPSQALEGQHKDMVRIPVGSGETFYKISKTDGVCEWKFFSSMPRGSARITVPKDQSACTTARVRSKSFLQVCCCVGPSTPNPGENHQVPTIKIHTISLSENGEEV
Procedure: Most of the compounds were tested for α1A functional activity using rabbit urethra as follows. Female New Zealand white rabbits (2.0-3.5 Kg) were sedated with CO2 and decapitated. […] Subsequent experimental conditions were as described above for the other tissues. Agonist concentration response curves were cumulative except for the vas deferens assay in which the transient response made such measurements impractical.

[3] = system: anesthetized dogs; experiment: Mean arterial pressure (MAP) in anesthetized dogs; type: in vivo, dog; settings: iv dose causing a maximum increase in MAP of 20 mm Hg, anesthetized female Beagle dogs
Excerpt: Female Beagle dogs (Marshall Farms, North Rose, N.Y.) greater that 2 years of age and weighing between 12 and 15 kg were used in these studies. At least 2 weeks prior to any agonist dosing, dogs were instrumented for the chronic measurement of arterial blood pressure by implanting a telemetry transducer/transmitter (TA11PA-C40, Data Sciences International, St. Paul, Minn.) into a carotid artery.
On the test day, dogs fasted since the previous afternoon were pre-anesthetized with thiopental sodium 15 mg/kg i.v. (Pentothal™, Abbott) and intubated. Anesthesia was maintained by allowing the dog to spontaneously breathe a mixture of isoflurane (2.5 to 3 volume %) and oxygen delivered by a Narkomed Standard anesthesia system (North American Drager, Telford, Pa.). An Abbocath-T™ i.v. catheter (18-G, Abbott) was inserted into the cephalic vein for the administration of agonists. A telemetry receiver (RA1310, DataSciences) was placed under the head of each dog and was interfaced to a computerized data acquisition system (Modular Instruments Inc.(MI2), Malvern, Pa.) which allowed for the continuous calibrated recording of arterial blood pressure which was electronically filtered to determine its mean value (MAP).
From the resulting dose response curve, an ED5 value, for the dose causing a maximum increase in IUP of 5 mm Hg, could be estimated. An ED20 value for the dose causing a maximum increase in MAP of 20 mm Hg could also be estimated. A selectivity ratio of MAP ED20 vs. IUP ED, was calculated.

CCS(=O)(=O)Nc1cccc2c1OCCC2c1c[nH]cn1 (single isomer, unassigned; (+)) [Example 95, (+) N-[4-(1H-imidazol-4-yl)-3,4-dihydro-2H-chromen-8-yl]ethanesulfonamide]
pKi [1]: 5.00 | EC50 [2]: 1.38 µM | Mean MAP ED20 [3]: 109.1 nmol/kg | melting point: 223 to 226 °C
